Results taken from PMC6385203, “Mutations in the palm domain disrupt modulation of acid-sensing ion channel 1a currents by neuropeptides” (Scientific Reports, 2019).
Peptide text beside a SMILES is read from it.

Target: T1, WT ASIC1a (Homo sapiens, UniProt P78348)
T1 construct: expressed in transfected cells; host or cells: Xenopus laevis oocytes injected with cRNA
T1 sequence (P78348 1-528): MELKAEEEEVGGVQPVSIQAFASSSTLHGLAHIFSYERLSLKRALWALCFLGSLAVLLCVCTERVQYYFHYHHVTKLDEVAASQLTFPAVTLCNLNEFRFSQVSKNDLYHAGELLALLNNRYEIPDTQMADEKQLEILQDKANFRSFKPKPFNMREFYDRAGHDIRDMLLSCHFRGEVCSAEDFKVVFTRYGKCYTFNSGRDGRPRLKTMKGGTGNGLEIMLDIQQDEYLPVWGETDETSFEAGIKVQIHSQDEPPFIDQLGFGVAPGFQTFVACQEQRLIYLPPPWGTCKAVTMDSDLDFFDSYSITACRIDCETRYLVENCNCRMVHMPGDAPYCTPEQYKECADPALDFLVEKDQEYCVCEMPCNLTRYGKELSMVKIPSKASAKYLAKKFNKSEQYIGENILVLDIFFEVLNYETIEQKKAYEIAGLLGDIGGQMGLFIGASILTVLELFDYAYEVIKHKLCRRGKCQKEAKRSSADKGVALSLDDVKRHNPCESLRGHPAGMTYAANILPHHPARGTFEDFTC
Experiment: Isust/Ipeak, TEVC in Xenopus oocytes, WT
Format: cell-based
Settings: FRRFa in pH7.4 conditioning and pH5 solution, mean ± SEM, n = 7–12, read-out: EC50 for induction of sustained current (Isust/Ipeak)
Method: ASIC1a function was measured by two-electrode voltage-clamp after recombinant expression in Xenopus oocytes. The channels were activated by a pH5 stimulation solution from a conditioning solution of pH7.4. […] We measured the rate of FRRFa unbinding, as the disappearance of the sustained current after a 50-s incubation with 50 μM FRRFa, as 0.025 ± 0.005 s^−1 (n = 8, Fig. 2b). […] To determine the kinetics of FRRFa association on ASIC1a, we pre-applied the peptide at a concentration of 50 μM for different time periods in the conditioning solution and measured the sustained current fraction.
Human ASIC1a[43] had been subcloned into a vector for transcription that contained 5′- and 3′-untranslated regions of Xenopus β-globin mRNA[44]. Point mutations were introduced using QuikChange (Agilent, Basel, Switzerland). Mutations were verified by sequencing (Synergene Biotech, Zurich, Switzerland). Expression in Xenopus laevis oocytes was carried out as described previously. […]
Electrophysiological measurements were performed 1–2 days after cRNA injection. Ion currents were recorded using two-electrode voltage-clamp at a holding potential of −60 mV with a Dagan TEV-200 amplifier (Minneapolis, MN). […] The amplitude of the sustained current was measured in the last two seconds of the pH5 perfusion. […]

N=C(N)NCCC[C@H](NC(=O)[C@H](CCCNC(=N)N)NC(=O)[C@@H](N)Cc1ccccc1)C(=O)N[C@@H](Cc1ccccc1)C(N)=O [FRRFa, Phe-Arg-Arg-Phe-amide] (H-FRRF-NH2)
EC50: 37 ± 15 µM
